Results from patent US5668152A, “Protein kinase C inhibitors” (priority 1995, dated 1997).
Entries after “also recorded” stand apart in the source; their conditions may differ. Where two headings read alike, the source gives them in different places.

Experiments:
[1] = tested on: PKC isozymes; conditions: cited from earlier work
[2] = molecular target: protein kinase C alpha (Homo sapiens, UniProt P17252); assay: PKC Enzyme assay, alpha isozyme; assay type: biochemical; conditions: PKC alpha; 30 μM ATP, 30° C., 10 minutes; read-out: IC50 α
[3] = molecular target: protein kinase C beta-1 (Homo sapiens, UniProt P05771); assay: PKC Enzyme assay, beta I isozyme; assay type: biochemical; conditions: PKC beta-1; 30 μM ATP, 30° C., 10 minutes; read-out: IC50 β1
[4] = molecular target: protein kinase C beta-2 (Homo sapiens, UniProt P05771); assay: PKC Enzyme assay, beta II isozyme; assay type: biochemical; conditions: PKC beta-2; 30 μM ATP, 30° C., 10 minutes; read-out: IC50 β2
[5] = molecular target: protein kinase C gamma (Homo sapiens, UniProt P05129); assay: PKC Enzyme assay, gamma isozyme; assay type: biochemical; conditions: PKC gamma; 30 μM ATP, 30° C., 10 minutes; read-out: IC50 γ
[6] = molecular target: protein kinase C delta (Homo sapiens, UniProt Q05655); assay: biochemical; conditions: PKC delta; 30 μM ATP, 30° C., 10 minutes; read-out: IC50 δ
[7] = molecular target: T1, protein kinase C epsilon (Homo sapiens, UniProt Q02156); assay: PKC Enzyme assay, epsilon isozyme; assay type: biochemical; conditions: PKC epsilon; 30 μM ATP, 30° C., 10 minutes; read-out: IC50 ε
T1 sequence (Q02156 1-737): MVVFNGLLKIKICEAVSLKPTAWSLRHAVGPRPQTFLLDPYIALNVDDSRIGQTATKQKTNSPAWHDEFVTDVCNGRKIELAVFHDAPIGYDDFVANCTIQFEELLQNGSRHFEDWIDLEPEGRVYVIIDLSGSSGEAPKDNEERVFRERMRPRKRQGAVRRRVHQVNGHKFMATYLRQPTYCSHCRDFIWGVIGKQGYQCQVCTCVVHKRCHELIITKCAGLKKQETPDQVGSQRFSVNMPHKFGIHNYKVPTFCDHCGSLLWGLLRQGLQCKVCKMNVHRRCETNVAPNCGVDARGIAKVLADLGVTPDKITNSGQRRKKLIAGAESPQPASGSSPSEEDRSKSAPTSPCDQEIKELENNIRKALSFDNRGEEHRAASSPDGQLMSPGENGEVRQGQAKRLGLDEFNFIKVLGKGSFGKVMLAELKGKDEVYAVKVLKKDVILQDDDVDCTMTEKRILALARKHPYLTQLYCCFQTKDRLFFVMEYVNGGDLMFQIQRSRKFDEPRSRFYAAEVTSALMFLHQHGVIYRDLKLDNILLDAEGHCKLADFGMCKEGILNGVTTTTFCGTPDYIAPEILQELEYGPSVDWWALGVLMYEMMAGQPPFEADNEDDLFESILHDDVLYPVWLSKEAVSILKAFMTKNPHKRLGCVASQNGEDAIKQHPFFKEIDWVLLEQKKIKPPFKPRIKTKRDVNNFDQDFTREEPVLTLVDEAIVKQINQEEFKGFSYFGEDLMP

[8] = molecular target: T2, protein kinase C zeta (Homo sapiens, UniProt Q05513); assay: PKC Enzyme assay, zeta isozyme; assay type: biochemical; conditions: PKC zeta; 30 μM ATP, 30° C., 10 minutes; read-out: IC50 ζ
T2 sequence (Q05513 1-592): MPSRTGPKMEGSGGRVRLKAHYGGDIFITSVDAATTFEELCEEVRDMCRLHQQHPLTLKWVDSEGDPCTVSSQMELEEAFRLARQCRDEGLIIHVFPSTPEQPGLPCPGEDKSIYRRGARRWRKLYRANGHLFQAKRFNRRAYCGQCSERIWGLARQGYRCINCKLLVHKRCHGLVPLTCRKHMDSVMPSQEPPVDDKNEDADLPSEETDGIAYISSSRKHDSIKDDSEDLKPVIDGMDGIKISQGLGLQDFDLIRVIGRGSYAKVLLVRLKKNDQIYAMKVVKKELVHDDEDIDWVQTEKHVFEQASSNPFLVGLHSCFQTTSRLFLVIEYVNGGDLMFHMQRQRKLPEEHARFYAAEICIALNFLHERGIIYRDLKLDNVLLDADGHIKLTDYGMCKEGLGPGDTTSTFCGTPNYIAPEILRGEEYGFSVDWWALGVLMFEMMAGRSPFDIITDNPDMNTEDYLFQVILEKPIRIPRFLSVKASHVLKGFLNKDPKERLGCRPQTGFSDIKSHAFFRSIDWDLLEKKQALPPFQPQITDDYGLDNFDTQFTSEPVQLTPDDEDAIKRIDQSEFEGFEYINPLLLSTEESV

[9] = molecular target: protein kinase C eta (Homo sapiens, UniProt P24723); assay: PKC Enzyme assay, eta isozyme; assay type: biochemical; conditions: PKC eta; 30 μM ATP, 30° C., 10 minutes; read-out: IC50 η
protein kinase C eta, sequence (P24723 whole entry): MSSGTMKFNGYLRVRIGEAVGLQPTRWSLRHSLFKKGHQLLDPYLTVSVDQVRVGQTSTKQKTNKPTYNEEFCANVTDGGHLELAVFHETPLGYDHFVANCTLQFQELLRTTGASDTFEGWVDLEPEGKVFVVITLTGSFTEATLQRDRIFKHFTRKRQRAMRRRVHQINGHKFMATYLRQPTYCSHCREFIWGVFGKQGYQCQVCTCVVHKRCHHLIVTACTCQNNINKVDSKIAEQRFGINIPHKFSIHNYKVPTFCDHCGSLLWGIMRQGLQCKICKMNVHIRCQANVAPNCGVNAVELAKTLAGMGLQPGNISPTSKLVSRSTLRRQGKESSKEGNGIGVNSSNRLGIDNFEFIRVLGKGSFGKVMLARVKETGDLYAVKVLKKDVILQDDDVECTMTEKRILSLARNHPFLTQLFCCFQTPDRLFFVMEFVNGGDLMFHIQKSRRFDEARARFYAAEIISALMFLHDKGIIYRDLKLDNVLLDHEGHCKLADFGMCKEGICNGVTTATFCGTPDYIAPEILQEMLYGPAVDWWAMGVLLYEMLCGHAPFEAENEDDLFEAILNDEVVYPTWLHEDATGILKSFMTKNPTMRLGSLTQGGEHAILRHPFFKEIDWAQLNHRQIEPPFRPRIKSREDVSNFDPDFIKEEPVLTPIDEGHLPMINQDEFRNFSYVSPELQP

protein kinase C beta-2, sequence (P05771 1-673 isoform P05771-2): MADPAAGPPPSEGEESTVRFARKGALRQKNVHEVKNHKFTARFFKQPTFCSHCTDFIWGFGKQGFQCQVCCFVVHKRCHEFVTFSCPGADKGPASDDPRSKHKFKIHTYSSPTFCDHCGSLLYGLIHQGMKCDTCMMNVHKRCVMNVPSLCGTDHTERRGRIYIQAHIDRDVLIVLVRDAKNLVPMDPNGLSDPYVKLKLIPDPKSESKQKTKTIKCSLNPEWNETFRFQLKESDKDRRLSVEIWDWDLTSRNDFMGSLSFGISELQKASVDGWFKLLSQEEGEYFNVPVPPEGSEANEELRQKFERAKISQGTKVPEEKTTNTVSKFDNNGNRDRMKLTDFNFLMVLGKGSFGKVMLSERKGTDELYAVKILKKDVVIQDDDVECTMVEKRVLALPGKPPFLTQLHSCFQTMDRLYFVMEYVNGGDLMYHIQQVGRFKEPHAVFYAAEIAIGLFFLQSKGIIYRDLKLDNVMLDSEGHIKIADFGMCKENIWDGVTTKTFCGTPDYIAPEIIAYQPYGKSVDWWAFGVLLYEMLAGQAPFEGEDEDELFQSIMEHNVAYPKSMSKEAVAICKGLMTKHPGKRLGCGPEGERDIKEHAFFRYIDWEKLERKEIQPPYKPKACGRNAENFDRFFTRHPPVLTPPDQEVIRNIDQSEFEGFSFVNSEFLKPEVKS
protein kinase C beta-1, sequence (P05771 whole entry): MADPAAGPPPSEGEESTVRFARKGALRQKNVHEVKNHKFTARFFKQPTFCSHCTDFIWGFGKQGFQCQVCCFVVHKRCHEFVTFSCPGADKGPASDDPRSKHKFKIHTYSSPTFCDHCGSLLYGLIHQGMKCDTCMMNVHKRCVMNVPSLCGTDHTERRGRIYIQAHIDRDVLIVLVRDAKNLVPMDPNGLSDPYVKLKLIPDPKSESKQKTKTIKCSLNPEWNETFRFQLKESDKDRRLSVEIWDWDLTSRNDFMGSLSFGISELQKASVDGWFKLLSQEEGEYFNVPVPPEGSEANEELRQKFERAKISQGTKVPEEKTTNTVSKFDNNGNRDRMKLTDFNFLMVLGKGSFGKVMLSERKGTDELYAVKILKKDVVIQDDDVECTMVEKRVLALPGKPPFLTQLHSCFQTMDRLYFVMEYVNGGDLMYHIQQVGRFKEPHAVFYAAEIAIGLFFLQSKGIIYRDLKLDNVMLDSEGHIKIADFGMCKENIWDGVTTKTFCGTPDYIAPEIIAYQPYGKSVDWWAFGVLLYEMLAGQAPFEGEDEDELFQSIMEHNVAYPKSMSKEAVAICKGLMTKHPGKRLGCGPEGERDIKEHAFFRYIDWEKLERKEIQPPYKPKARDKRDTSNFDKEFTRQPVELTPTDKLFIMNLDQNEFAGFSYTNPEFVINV
protein kinase C delta, sequence (Q05655 whole entry): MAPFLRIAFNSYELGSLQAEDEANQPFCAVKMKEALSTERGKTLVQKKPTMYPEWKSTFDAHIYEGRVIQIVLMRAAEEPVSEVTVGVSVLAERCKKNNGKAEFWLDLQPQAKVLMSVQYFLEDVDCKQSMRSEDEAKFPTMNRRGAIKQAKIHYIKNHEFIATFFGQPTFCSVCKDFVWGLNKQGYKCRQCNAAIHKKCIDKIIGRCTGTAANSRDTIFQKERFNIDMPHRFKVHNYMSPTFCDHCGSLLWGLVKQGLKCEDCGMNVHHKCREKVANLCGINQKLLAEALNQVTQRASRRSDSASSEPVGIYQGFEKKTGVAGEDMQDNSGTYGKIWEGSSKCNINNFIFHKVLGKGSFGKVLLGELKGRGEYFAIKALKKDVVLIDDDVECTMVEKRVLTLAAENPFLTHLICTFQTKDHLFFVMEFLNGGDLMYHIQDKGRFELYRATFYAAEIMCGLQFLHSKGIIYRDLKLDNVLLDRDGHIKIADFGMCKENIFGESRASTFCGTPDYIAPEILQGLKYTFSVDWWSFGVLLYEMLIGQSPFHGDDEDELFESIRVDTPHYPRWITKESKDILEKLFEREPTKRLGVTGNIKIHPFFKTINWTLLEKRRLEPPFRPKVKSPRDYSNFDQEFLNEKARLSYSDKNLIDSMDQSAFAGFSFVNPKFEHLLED

| IC50 [2] [µM] | IC50 [3] [µM] | IC50 [4] [µM] | IC50 [5] [µM] | IC50 [6] [µM] | IC50 [7] [µM] | IC50 [8] [µM] | IC50 [9] [µM] | SMILES | isozyme selectivity ([1]; Martiny-Baron et al. (1993)) | isozyme selectivity ([1]; Toullec et al. (1991)) |
| --- | --- | --- | --- | --- | --- | --- | --- | --- | --- | --- |
|  |  |  |  |  |  |  |  | CN(C)CCCn1cc(C2=C(c3c[nH]c4ccccc34)C(=O)NC2=O)c2ccccc21 [3-[1-(3-dimethylaminopropyl)-indol-3-yl]-4-(1H-indol-3-yl)-1H-pyrrole-2,5-dione] | slight selectivity for isozymes, alpha and beta versus delta, epsilon, and zeta; also recorded: no differences in the selectivity between alpha and beta-1 isozymes | slight selectivity for the calcium dependent isozymes; also recorded: no isozyme selectivity between alpha, beta-1, beta-2, and gamma |
| 6.5 | 0.39 | 0.21 | 8.2 | 7.3 | > 100 | > 100 | 3.1 | CCOC(=O)N1CCC(Cn2cc(C3=C(c4cn(C)c5ccccc45)C(=O)NC3=O)c3ccccc32)CC1 [Example 69, 3-[1-(1N-ethycarbomate-piperidin-4-yl-methylene)-indol-3-yl]-4-[1-methyindol-3-yl]-1H-pyrrole-2,5-dione] |  |  |
| 3.3 | 0.32 | 0.19 | 3 | 3.2 | 70 | 37 | 1.4 | CC(=O)NCC1OC(OCCCCn2cc(C3=C(c4cn(C)c5ccccc45)C(=O)N(C(C)=O)C3=O)c3ccccc32)CC1OC(C)=O (centres unmarked) [Example 70] |  |  |
| > 100 | 9.1 | 2.7 | 90 | > 100 | > 100 | 49 | 0.042 | Cn1cc(C2=C(c3cn(C4CN(C(c5ccccc5)c5ccccc5)C4)c4ccccc34)C(=O)NC2=O)c2ccccc21 [Example 72, 3-[1-(Benzhydryl-azetidin-3-yl)-indol-3-yl)-4-(1-methyl-indol-3-yl)-1H-pyrrole-2,5-dione] |  |  |
